Measurements taken from US20110060010A1, “SALTS OF 3-(4-AMINO-1-OXO-1,3-DIHYDRO-ISOINDOL-2-YL)PIPERIDINE-2,6-DIONE AND DERIVATIVES THEREOF, OR POLYMORPHS OF SALTS, PROCESS FOR PREPARING SAME AND USE THEREOF” (TIANJIN HEMAY BIO-TECH CO., LTD, priority 2008, published 2011).
Values after ≈ are worked out from the molar mass of the structure shown. Read-outs that look alike come from different tables or passages of the source.

Assays:
[1] = physchem
Description: (§1) The sample in each example was scanned with UV spectroscopy in the wavelength range of 190-900 nm. The maximum absorbance was set to 2. All the samples to be determined have the same absorption peak at 304 nm. Although there are other absorption peaks in the range of 205-190 nm, the peak shapes are slightly different and the maximum absorption wavelengths thereof are different. Therefore, the fixed wavelength was determined to be 304 nm in the concentration versus absorbance determination.
(§2) Therefore, this compound was chosen to plot the concentration versus absorbance standard curve.
(§3) To a 100 mL volumetric flask were added the sample in Example 7 (279.26 mg) and distilled water. The volume was determined at 100 ml with distilled water. The concentration of the solution is 2.793 mg/mL. To a 50 mL volumetric flask was added 1 mL, 2 mL, 3 mL and 5 mL of the above solution, respectively. The volume was determined at 50 ml with distilled water. The concentrations of these solutions are 0.056 mg/mL, 0.112 mg/mL, 0.167 mg/mL and 0.279 mg/mL, respectively.
(§4) A small amount of the sample was used to prepare a 5 mL saturated solution. The solution was kept in a constant temperature water bath for 1 hour at 25° C. The supernatant was sampled and diluted to appropriate times according to the range of the standard curve. The concentration was determined by ultraviolet spectrophotometry, and the determined reading was multiplied by the dilution times to obtain the solubility of the sample to be determined.

[2] = 15° C.
Description: as §1, §2, §3, §4

[3] = Stability of aqueous solution at room temperature; type: physicochemical; details: 17 mg dissolved in 10 mL of deionized water, kept at room temperature for 12 hours
Description: 17 mg of 3-(4-amino-1-oxo-1,3-dihydro-isoindol-2-yl)piperidine-2,6-dione bisulfate tetrahydrate (equivalent to 10 mg of 3-(4-amino-1-oxo-1,3-dihydro-isoindol-2-yl)piperidine-2,6-dione) was dissolved in 10 mL of deionized water and kept at room temperature for 12 hours. The content is higher than 98% of labeled amount.

[4] = water, 15 °C, thermodynamic from solid

**Q.** Which solubility [1, 4] does the source give for `Nc1cccc2c1CN(C1CCC(=O)NC1=O)C2=O` (stereo not drawn) [Compound (II), in which Y represents H, 3-(4-amino-1-oxo-1,3-dihydro-isoindol-2-yl)piperidine-2,6-dione] here?
**A.** The solubility was 0.29 mg/mL (≈ 1120 µM).

**Q.** With `Nc1cccc2c1CN(C1CCC(=O)NC1=O)C2=O.O=S(=O)(O)c1cccc2ccccc12` (stereo not drawn) [Example 4] as the compound, how does the solubility ([2]; in water) read?
**A.** Its solubility is 5.60 mg/mL.

**Q.** Which solubility at 1 h [1, 4] does the source give for `Nc1cccc2c1CN(C1CCC(=O)NC1=O)C2=O` (stereo not drawn) [Example 12, 3-(4-amino-1-oxo-1,3-dihydro-isoindol-2-yl)piperidine-2,6-dione] here?
**A.** Its solubility at 1 h is 0.57 mg/mL (≈ 2200 µM).

**Q.** For `Nc1cccc2c1CN(C1CCC(=O)NC1=O)C2=O.O=[N+]([O-])O` (stereo not drawn) [Example 10], which Water-solubility [2] is on record?
**A.** Its Water-solubility is 3.68 mg/mL.

**Q.** For `Br.Nc1cccc2c1CN(C1CCC(=O)NC1=O)C2=O` (stereo not drawn) [Example 15], which Water-solubility [2] is on record?
**A.** Its Water-solubility is 5.5 mg/mL.

**Q.** With `Nc1cccc2c1CN(C1CCC(=O)NC1=O)C2=O.O.O.O.O.O=S(=O)(O)O` (stereo not drawn) [Example 7, 3-(4-amino-1-oxo-1,3-dihydro-isoindol-2-yl)piperidine-2,6-dione bisulfate tetrahydrate] as the compound, how does the solubility at 1 h ([1]; 15 °C, water, thermodynamic from solid) read?
**A.** The solubility at 1 h was over 1000 mg/mL.

**Q.** What about the solubility ([1]; water, thermodynamic from solid) of the same compound?
**A.** Its solubility is over 1000 mg/mL.

**Q.** And the “content (of labeled amount)” value [3]?
**A.** The value was “higher than 98 % of labeled amount”.

**Q.** Which Water-solubility [2] does the source give for `Cl.Nc1cccc2c1CN(C1CCC(=O)NC1=O)C2=O` (stereo not drawn) [Example 11] here?
**A.** The Water-solubility was 1.23 mg/mL.
